Consider one compound from patent publication US20060009520A1, “Retinoid-based methods for altering macrophage cholesterol” (priority 2004, published 2006).

Series [1] concerns ABCA1 protein. The series can be described thus: Western blot of ABCA1 protein in RARγ−/− mouse peritoneal macrophages. Format: cell-based. As to conditions: 5 μM, 24 h. As for the experimental part: (§1) Protein extracts from macrophages were prepared by lysing the cells in modified radioimmunoprecipitation assay buffer (50 mM Tris, 150 mM NaCl, 1 mM EDTA. 1% Triton X-100) containing a protease inhibitor cocktail (Complete EDTA Free; Roche). Protein content in the extracts was determined by using the DC protein assay (Bio-Rad, Hercules, Calif.). Equal amounts of protein (40 to 50 μg) were separated by electrophoresis with 4 to 15% acrylamide gradient gels (Bio-Rad) and then transferred to nitrocellulose membrane (Trans-Blot Transfer Medium; Bio-Rad). Membranes were probed with anti-ABCA1 antibody (Novus Biologicals, Littleton, Colo.) and anti-β-actin antibody (Sigma) according to the manufacturer's recommendations. Immunoblots were developed by using a chemiluminescent detection system (Super Signal West Pico chemiluminescent substrate; Pierce, Rockford, Ill.).

Series [2] can be described thus: Plasma and hepatic lipid analysis. As to conditions: mice; for Hepatic lipid Cholesterol / Hepatic lipid Triglycerides / Plasma lipid Cholesterol / Plasma lipid Triglycerides: 24 h. Format: in vivo, mouse. As for the experimental part:
Mice were fasted for 3 h before blood collection. Plasma was separated by centrifugation and kept at −80° C. until lipid analysis. Liver tissue samples (50 to 75 mg) were homogenized in PBS. Lipids were then extracted with chloroform-methanol (2/1 [vol/vol]) and redissolved in isopropanol. Triglyceride and cholesterol were measured in plasma and in the liver lipid extracts by using commercial kits (Wako Chemicals, Neusse Germany).

Series [3] relates to ABCA1 protein. The series is described as follows: Western blot of ABCA1 protein in mouse peritoneal macrophages. Format: cell-based. As to conditions: 24 h. As for the experimental part: as §1
In series [4] the test system is SREBP-1c, FAS, ABCA1, Cyp26 mRNA in liver. The series can be described thus: Gene expression in mouse liver after intraperitoneal injection. As to conditions: mice, intraperitoneal 1 or 10 mg/kg, 24 h. Format: in vivo. On the procedure:
(A) RAR regulation of ABCA1 and SREBP-1c expression in mouse peritoneal macrophages. […] ABCA1 and SREBP-1c mRNA levels were determined by quantitative real-time reverse transcription-PCR and standardized against β-actin mRNA levels. The results are expressed as mean±the SEM (n=4 and 6). *, P<0.05; **, P<0.01 (compared to control). […] After 24 h, the mice were anesthetized, the livers were perfused, and the square lobes were removed for isolation of RNA. […] The results are expressed as mean±the SEM (n=5).
Total RNA was isolated from mouse peritoneal macrophages or ˜50 mg of mouse liver tissue by using the RNeasy Mini kit (Qiagen, Valencia, Calif.) or RNA-Bee reagent (Tel-Test, Inc., Friendswood, Tex.), respectively, according to the manufacturer's protocol. Real-time quantitative PCR assays were performed by using the Mx4000 Quantitative PCR System (Stratagene, La Jolla, Calif.). Briefly, 5 μg of total RNA was treated with RNase-free DNase I (Ambion, Austin, Tex.), and first-strand cDNA was synthesized with oligo(dT)12-18 by using a Superscript II RNase H^− reverse transcriptase reagent kit (Invitrogen) according to the manufacturer's protocol. For quantification of mouse ABCA1, ABCG1, SREBP-1c, LXRα, ApoE, and fatty acid synthase (FAS) mRNA levels, each amplification mixture contained 62.5 ng of cDNA, appropriate concentrations of forward and reverse primers and of dual-labeled fluorogenic probe (Biosearch Technologies, Novato, Calif.), and 12.5 μl of TaqMan Universal PCR master mix (Applied Biosystems, Foster City, Calif.). PCR thermocycling parameters were 50° C. for 2 min, 95° C. for 10 min, and 45 cycles of 95° C. for 15 s and 60° C. for 1 min. All samples were analyzed for β-actin expression in the same run. Quantitative expression values were extrapolated from standard curves for the gene of interest with 10-fold dilutions of cDNA (in triplicate). Each sample was normalized to β-actin, triplicates were averaged, and relative mRNA levels were determined. […]
For quantification of mouse Cyp26 mRNA levels, each amplification mixture (25 μ) contained 62.5 ng of cDNA, 100 nM concentrations of reverse and forward primers, and 2.5 μl of 10× SYBR Green PCR master mix (Perkin-Elmer Life Sciences, Boston, Mass.). Quantitative expression values were extrapolated from standard curves for Cyp26 expression with 10-fold dilutions of cDNA (in triplicate). Each sample was normalized to β-actin that was deduced from TaqMan assays, triplicate results were averaged, and relative Cyp26 mRNA levels were determined. […]

For `C/C(=C\c1ccc(C(=O)O)cc1)c1ccc2c(c1)C(C)(C)CCC2(C)C` [TTNPB, 4-[E-2-5,6.7.8-tetrahydro-5,5,8,8-tetramethyl-2-naphthalenyl-l-propenyl]benzoic acid], the ABCA1 protein induction entry in the series with ABCA1 protein [1] is recorded as “still induced”. Also, in series [2] (1 mg/kg intraperitoneally), the “Hepatic lipid Cholesterol” value was 1.43 ± 0.07 μg/mg of tissue, the “Hepatic lipid Triglycerides” value is given as 11.57 ± 4.05 μg/mg of tissue, the “Plasma lipid Cholesterol” value was determined as 64.1 ± 8.0 mg/dL and the “Plasma lipid Triglycerides” value was determined as 35.1 ± 4.0 mg/dL. In addition, in series [2] (10 mg/kg intraperitoneally), the “Hepatic lipid Cholesterol” value is on record as 1.31 ± 0.20 μg/mg of tissue, the “Hepatic lipid Triglycerides” value is 9.25 ± 1.98 μg/mg of tissue, the “Plasma lipid Cholesterol” value amounted to 58.0 ± 4.9 mg/dL and the “Plasma lipid Triglycerides” value came to 33.1 ± 3.1 mg/dL. In series [2] (intraperitoneal), the “effect on hepatic triglyceride content” value is reported as “did not result in an increase”. Besides, the “effect on triglyceride levels in plasma” value in series [2] (intraperitoneal, higher doses) is listed as “significant reduction”. Further, in the series with ABCA1 protein [3], the ABCA1 protein levels result is recorded as “accumulation of ABCA1 protein”. In addition, in series [4], the “Cyp26 mRNA in liver” value is recorded as “markedly induced”, the “FAS gene expression in liver” value was “no response”, the “hepatic ABCA1 mRNA” value is listed as “not induced” and the “hepatic SREBP-1c mRNA” value is recorded as “repressed”.
